How the values were obtained:
[1] = tested on: HGF/MET system; test: Phospho-MET ELISA; format: cell-based; conditions: HEK293 cells; with 1 ng/mL recombinant HGF; 15 minutes; augmentation of MET phosphorylation (pMET ELISA)
Protocol: Compounds were screened for potency towards the HGF/MET system using phospho-MET (pMET) ELISA kits (Cell Signaling). pMET levels were detected in samples having low (1 ng/mL) and high (10 ng/mL) concentrations of HGF.
HEK293 cells were prepared by passage into 6-well multi-plates and grown at 37° C. at 5% CO2 in DMEM+10% FBS until approximately 90% confluent. Cells were then starved for at least 8 hours in serum-free growth media.
Exemplary compounds were prepared in DMEM+0.1% FBS, diluted and added to treatment media with 1 ng/mL recombinant HGF protein (R&D Systems). Cells were incubated in triplicate at 37° C. and 5% CO2 for 15 minutes. Samples were then treated with 180 μL ice-cold RIPA (radioimmunoprecipitation assay) buffer and cells were lysed on ice for 15 minutes. Lysates were cleared by centrifugation at 16,000-g for 15 minutes and the supernatant was retained. Samples were normalized using a BCA assay of lysates to determine protein concentrations across the samples.
Between 50 and 100 μg total protein lysate was loaded into ELISA wells in pMET Sandwich ELISA kit (Cell Signaling Catalog #7227C), ensuring equal protein load in each well. The ELISA was processed according to manufacturer's instructions. After color developed, absorbance was read on an optical plate reader at 450 nm.
Potency measurements were determined using peak efficacy by scaling test compound dose treatments along a scale of 1-10 between 1 ng/mL and 10 ng/mL HGF doses according to the following formula: […]
where y is the normalized data-point, x is the raw data point, A is the mean HGF at 1 ng/mL, and B is the mean HGF at 10 ng/mL.

[2] = tested on: MDCK cells; test: Cell scattering behavior assay; format: cell-based; conditions: with 5 ng/mL HGF, 24 hours, normalized particle count compared to HGF treatment alone
Protocol: MDCK cells were grown under normal conditions and observed to spontaneously form tight colonies as they proliferate. MDCK cells respond to HGF treatment by moving away from each other (scattering), which is quantified to assess the amount of HGF/MET activation in the cell population. In this experiment, MDCK cells were plated in a 96-well format, treated with HGF and exemplary compounds, fluorescently stained, imaged in large fields, and scattering behavior was quantified. Quantification was determined by analyzing the number of continuous groups of cells compared to the total stained area imaged (normalized particle counts).
MDCK cells were plated at low density in black-walled imaging plates and allowed to attach overnight at 37° C. and 5% CO2 in DMEM+10% FBS. Cells were then starved to 2 hours in DMEM without FBS (“starve media”). Samples containing exemplary compounds were prepared in DMEM without FBS and included 5 ng/mL HGF protein (“treatment media”). A control curve was also prepared for each plate using HGF concentrations of 0, 5, 10, and 20 ng/mL. Starve media was replaced with treatment media and cells were incubated for 24 hours at 37° C. and 5% CO2.
After incubation, cells were fixed by replacing treatment media with cold ethanol and incubating for 20 minutes at 4° C. Cells were then rehydrated by washing with PBS and then with stain solution (fluorescent wheat germ agglutinin; WGA488 at 20 μg/mL in PBS). Cells were incubated with stain solution 30 minutes at room temperature after which stain solution was replaced with fresh PBS.
Fields of cells were imaged using an iCyte high content imager in the green wavelength. Images were converted to binary and analyzed for particle size and particle count. For the purpose of analysis, an individual cell touching no other cells or separated colonies of cells were identified as particles, and particle counts were normalized by the total signal area to account for differences in cell number. […] Compound potency was assessed by statistical increase in normalized particle count compared to HGF treatment alone.

[3] = Parallel artificial membrane permeability assay (PAMPA); format: in vitro ADME; conditions: PBS, room temperature for 5 hours, 200 uM in donor well
Protocol: Bioavailable drugs must permeate the cellular membranes of the lining of the digestive tract. To estimate the penetrability of exemplary compounds, the in vitro parallel artificial membrane permeability assay (PAMPA) was utilized.
Test compounds must have a standard curve in the final read plate to determine partitioned concentration of each drug. A 6-point standard curve was prepared for each compound from 0 to 200 μM in phosphate-buffered saline (PBS).
Test compound solution (300 μL in PBS) was added to the donor (bottom) well of the PAMPA plate in 5 replicates and PBS vehicle (200 μL) was added to the acceptor (top) wells of appropriate wells to match the loading of the donor plate. The bottom and top of the PAMPA plates were then sandwiched together. The PAMPA plates were then incubated at room temperature for 5 hours. After incubation, 150 μL of donor solution was added to a UV compatible plate containing the corresponding standard curve. 150 μL of acceptor well solution was added adjacent to the corresponding standard curve and donor well samples for that compound. The plate was then read using a UV plate reader.
Permeability and membrane retention were then calculated based on the following formulas:
where: • A=filter area (0.3 cm^2); • VD=donor well volume (0.3 mL); • VA=acceptor well volume (0.2 mL); • t=incubation time (seconds); • CA(t)=compound concentration in acceptor well at time t; • CD(t)=compound concentration in donor well at time t; and
where: • CD(t), VD, CA(t), and VA are as defined for equation 1, and • C0=initial concentration in donor well (200 uM).

[4] = tested on: hepatocyte (HepG2) cell cultures; test: Cytotoxicity assay (LDH release); format: cell-based; conditions: HepG2 cells, 48 hours, 0.1 to 100 μM
Protocol: This experiment was designed to obtain a preliminary assessment of cytotoxicity.
HepG2 cells were plated in 96-well cell culture plates and allowed to attach overnight at 37° C., 5% CO2 in EMEM+10% FBS. Treatments were made in complete media (EMEM+10% FBS) and included a dilution series of test compounds from 0.1 to 100 μM. Known cytotoxin cerivastatin was used as a positive assay control and prepared at a final concentration of 0.5 μM.
Growth media was replaced with treatment media (EMEM+10% FBS containing test compound dissolved in DMSO) and cells were incubated with test compounds for 48 hours. At the end of the incubation period, supernatant media from each well was transferred to a new plate and LDH assay working solution was added. LDH assay solution undergoes a colorimetric reaction in proportion to the amount of lactate dehydrogenase (an intracellular protein that was only found in the media in the presence of lysed cells) in the media. Color reaction was quantified by measurement of absorbance at a wavelength of 490 nm.
The signal range of the assay was determined by no manipulation in a negative control treatment and full lysis of all cells in a lysis control sample. Compounds that increase the level of cytotoxicity more than 20% above negative control samples were considered cytotoxic in this assay.

[5] = tested on: Rat primary cortical neuron cultures; test: Protection from neurotoxicity in vitro (Cell Titer-Glo viability); format: cell-based; conditions: for Protection of cell viability, statistical significance vs. insult control: Positive Control (1 uM)
Protocol: HGF/MET signaling activation is expected to protect cells, including neurons, from cell death. […] Hydrogen peroxide (H2O2) treatment produces toxic oxidative stress. Bacteria-derived lipopolysaccharide (LPS) treatment induces inflammatory cell death. Treatment with excess glutamate (Glut) produces excitotoxicity in neuron cultures. Treatment with 1-methyl-4-phenylpyridinium (MPP^+) causes cell death by inhibition of mitochondrial function.
Rat primary cortical neuron cultures were grown at 37° C., 5% CO2 in Complete Neurobasal Medium supplemented with B27/GDNF/BDNF containing 10% FBS until maturity and were then seeded in 384-well plate at 5,000 cells/well. Cultures were then treated for 15 minutes with 1 uM, 100 nM, 10 nM, 1 nM, or 0.1 nM of compound 1a. Cells were then subjected to individual conditional insults for 24 hours at the following concentrations: H2O2 at 1 uM, LPS at 1 uM, glutamate at 25 uM, MPP+ at 500 uM. All treatments contained recombinant human HGF (R&D Systems) at a concentration of 5 ng/ml.
To quantify neuroprotection, cell viability was measured with the Cell Titer-Glo Luminescent Cell Viability Assay (Promega, Cat #G7571). Data was normalized to DMSO+HGF control set at 100% cell viability. Statistical analyses for each group (n=4) were performed using one-way ANOVA with Tukey's Multiple comparison test.
Data is reported as statistical significance vs. insult control, with NS=not significant, +=p<0.05, ++=p<0.01, and +++=p<0.001.

[6] = tested on: scopolamine-induced cognitive impairment; test: Scopolamine-induced cognitive impairment, T-maze spontaneous alternation task; format: in vivo, CD-1 mice; conditions: mice; scopolamine only, 0.89 mg/kg
From the text: Mild cognitive impairment can be assessed in rodent models via delivery of various compounds that interfere with normal neurotransmitter signaling. Scopolamine is a compound that is well-known to antagonize muscarinic acetylcholine receptors, nicotinic receptors, as well as glutamatergic receptors such as NMDA receptors. Thus, delivery of scopolamine results in cognitive impairment, which can be assessed in a variety of cognitive tasks. Positive modulation of the HGF/MET system can promote NMDA receptor activation and results in pro-cognitive effects. Two test compounds, Compound 1a and Compound 5a, were evaluated for their ability to protect against scopolamine-induced cognitive impairment.
In this study, mild cognitive impairment was modeled in otherwise healthy male CD-1 mice (4-5 weeks old at study start) by acute delivery of 0.89 mg/kg scopolamine (dissolved in saline). Test compounds were administered via oral gavage 0.5 hours prior to scopolamine exposure, and cognitive performance was assessed in the T-maze spontaneous alternation task 0.5 hours after scopolamine exposure (1 hour following test compound exposure). The experimental protocol consisted of one single session, which started with 1 “forced-choice” trial, followed by 14 “free-choice” trials. In the first “forced-choice” trial, the animal was confined 5 seconds in the start arm and was then released while either the left or right goal arm was blocked by a horizontal door. After the mouse entered the open goal arm and returned to the start position, the left or right goal door was opened, and the animal was allowed to choose freely between the left and right goal arm (“free choice trials”). The animal was considered to have entered into an arm when it placed its four paws in the arm. Normal animals will choose to explore the previously-unexplored arm, which is recorded as a spontaneous alternation. […] The session was terminated, and the animal was removed from the maze as soon as 14 free-choice trials had been performed or 10 min had elapsed, whichever event occurred first.
This percentage was defined as entry into a different goal arm of the T maze over successive trials (e.g., left-right-left-right) and was calculated using the formula: (% alternations=Number of Alternations/14*100). Both compounds attenuated the degree of scopolamine-induced cognitive impairment, as indicated by increased percent of spontaneous alternations compared to scopolamine-only controls. Statistical analysis was accomplished via 1-way ANOVA with Dunnet's multiple comparisons post-test.

SMILES	Potency [1]	Potency [2]	Papp at 5 h, 200 uM [3] [×10⁻⁶ cm/s]	Cytotoxicity [4]	other results
CCC(C)CN1CC2N(Cc3ccc(OC(F)F)cc3)CCC(=O)N2C(CC(=O)O)C1=O (stereo not shown) [Compound 49, 2-(1-(4-(difluoromethoxy)benzyl)-8-(2-methylbutyl)-4,7-dioxooctahydro-2H-pyrazino[1,2-a]pyrimidin-6-yl)acetic acid]	++++ (++++ indicates maximum potency at or above 0.1 nM)	++++ (++++ indicates maximum potency at or above 0.1 nM)	> 2	++++ (++++ indicates non-toxic at 100 μM)	–
CCC(C)CN1CC2N(Cc3ccc(F)cc3)CCC(=O)N2C(C)C1=O (stereo not shown) [Compound 42]	++++ (++++ indicates maximum potency at or above 0.1 nM)	+++ (+++ indicates maximum potency at or above 1 nM)	> 2	++++ (++++ indicates non-toxic at 100 μM)	–
N[C@@H](CCC(=O)O)C(=O)O [Glutamate, glutamate, reference compound]	–	–	–	–	Insult effect (% viability vs vehicle) ([5]; 25 uM, 24 hours, with HGF 5 ng/ml): 49.55%
CCC(C)CN1CC2N(Cc3ccc(OC(F)F)cc3)CCC(=O)N2C(CC(C)C)C1=O (stereo not shown) [Compound 53, 1-(4-(difluoromethoxy)benzyl)-6-isobutyl-8-(2-methylbutyl)hexahydro-4H-pyrazino[1,2-a]pyrimidine-4,7(6H)-dione]	++ (++ indicates maximum potency at or above 10 nM)	+++ (+++ indicates maximum potency at or above 1 nM)	< 2	+++ (+++ indicates non-toxic at 10 μM)	–
CC1C(=O)N(CCC2CCC2)CC2N(Cc3ccc(C(F)(F)F)c(Cl)c3)CCC(=O)N12 (stereo not shown) [Compound 51]	+++ (+++ indicates maximum potency at or above 1 nM)	+++ (+++ indicates maximum potency at or above 1 nM)	< 2	+++ (+++ indicates non-toxic at 10 μM)	–
CN1[C@@H]2C[C@@H](OC(=O)[C@H](CO)c3ccccc3)C[C@H]1[C@@H]1O[C@@H]12 [SCO, scopolamine, reference compound]	–	–	–	–	Spontaneous alternations % [6]: 37%
C[C@]12N[C@H](Cc3ccccc31)c1ccccc12 [MK-801, reference compound]	–	–	–	–	Protection of cell viability, statistical significance vs. insult control ([5]; insult Glutamate (25 uM) 24 hours): +++ (+++=p<0.001); Protection of cell viability, statistical significance vs. insult control ([5]; insult H2O2 (1 uM) 24 hours): +++ (+++=p<0.001); Protection of cell viability, statistical significance vs. insult control ([5]; insult LPS (1 uM) 24 hours): +++ (+++=p<0.001); Protection of cell viability, statistical significance vs. insult control ([5]; insult MPP+ (500 uM) 24 hours): +++ (+++=p<0.001)

From patent US20250041307A1, “Uses of Bicyclic Compounds for the Treatment of Diseases” (Athira Pharma, Inc., priority 2021, published 2025)
